# Test results published in patent publication EP2785358B1, “INSULIN-MIMETICS AS THERAPEUTIC ADJUNCTS FOR BONE REGENERATION” (priority 2011, dated 2013).
# Where two headings read alike, the source gives them in different places.
# Assays:
# femur fractures [1] = conditions: four weeks post-fracture
# Description: X-rays are taken at two-week intervals to the day of euthanasia. After euthanasia x-rays are taken as well. To take x-rays, animals will be given a half dose of anesthesia. All groups will be monitored closely for four days after surgery for infection, and the ability to ambulate freely.
# femur fractures [2] = tested on: femur fractures
# Description: The fractured femora were resected at seven and ten days post-fracture, decalcified, dehydrated, embedded in paraffin, and sectioned using standard histological techniques. Sections were stained with Masson's Trichrome (Accustain™ Trichrome Staining kit, Sigma Diagnostics, St. Louis, MO) for histological observation using an Olympus BH2-RFCA microscope (Olympus Optical Co., Ltd., Shinjuku-ku, Tokyo, Japan). Digital images were collected using a Nikon DXM1200F digital camera (Nikon, Tokyo, Japan). Cartilage, new bone, and total callus area were measured from the digital images using Image-Pro Plus software (version 5, Media Cybernetics, Inc., Silver Spring, MD). Total cartilage and new bone area were normalized to total callus area and expressed as the percent area. Two independent reviewers were used to minimize inconsistencies.
# femur fractures [3] = tested on: femur fractures; parameters: Percent Effective Shear Modulus / Percent Effective Shear Stress: scale not given: direction of the effect not stated beside the values; conditions: no carrier, 4 weeks post-fracture; for Percent Effective Shear Modulus / Percent Effective Shear Stress / Percent Maximum Torque to Failure / Percent maximum torsional rigidity: normalized to intact femur
# Protocol: Torsional testing was conducted at 4 weeks post-fracture, using a servohydraulics machine (MTS Sys. Corp., Eden Prairie, MN) with a 20 Nm reaction torque cell (Interface, Scottsdale, AZ). Femurs were tested to failure at a rate of 2.0 deg/sec at four weeks post-fracture. […] In order to compare the biomechanical parameters between different groups, the data was normalized by dividing each fractured femur value by its corresponding intact, contralateral femur value. Torsional mechanical testing is limited by differences in gauge length during bone potting in Field's metal. Placement and dimension of fracture gap can contribute to standard deviations.
# [4] = tested on: posterolateral lumbar fusion (L4-L5); experiment: Spinal fusion: manual palpation; conditions: n=10, eight weeks
# [5] = tested on: posterolateral lumbar fusion (L4-L5); experiment: Spinal fusion: MicroCT bone volume; conditions: L4/L5 transverse processes and fusion mass, eight weeks
# [6] = tested on: posterolateral lumbar fusion (L4-L5); experiment: Spinal fusion: radiographic analysis; conditions: n=10, eight weeks
# [7] = manganese chloride 0.125 mg/kg, 7 days post fracture
# [8] = manganese chloride 0.125 mg/kg, 10 days post fracture
# [9] = manganese chloride 0.3 mg/kg, 7 days post fracture
# [10] = manganese chloride 0.3 mg/kg, 10 days post fracture
# [11] = manganese chloride 0.87 mg/kg, 7 days post fracture
# [12] = manganese chloride 0.87 mg/kg, 10 days post fracture
# [13] = Zn-high pellet 1.0 mg/kg, listed as zinc
# [14] = Zn-low pellet 0.5 mg/kg, listed as zinc
compound,measurement,setting,value
"[Cl][Mn][Cl] [MnCl2, manganese chloride]",mineralized tissue on radiographs,femur fractures [1]; MnCl2 0.25 mg/kg,increased mineralized tissue than saline controls
same,union on radiographs,"femur fractures [1]; MnCl2 group, saline control had no evidence of union",union at the subperiosteal bony area and at the callus
same,% Cartilage,femur fractures [2]; [7],4.843 ± 2.3 n=6%
same,% new bone,femur fractures [2]; [7],15.518 ± 2.69 n=6%
same,% Cartilage,femur fractures [2]; [8],5.9 ± 4.47 n=5%
same,% new bone,femur fractures [2]; [8],14.69 ± 11.74 n=5%
same,% Cartilage,femur fractures [2]; [9],2.859 ± 1.09 n=7%
same,% new bone,femur fractures [2]; [9],15.604 ± 2.39 n=7%
same,% Cartilage,femur fractures [2]; [10],11.051 ± 3.05 n=9%
same,% new bone,femur fractures [2]; [10],"18.866 ± 2.28^∗,# n=9%"
same,% Cartilage,femur fractures [2]; [11],4.355 ± 3.99 n=3%
same,% new bone,femur fractures [2]; [11],16.492 ± 3.59 n=3%
same,% Cartilage,femur fractures [2]; [12],8.227 ± 2.24 n=3%
same,% new bone,femur fractures [2]; [12],15.948 ± 3.04 n=3%
same,Effective Shear Modulus,femur fractures [3]; MnCl2 0.083 mg/kg local,8.7×10^2 ± 4.9×10^2 MPa
same,Effective Shear Stress,femur fractures [3]; MnCl2 0.083 mg/kg local,30 ± 8 MPa
same,Maximum Torque to Failure,femur fractures [3]; MnCl2 0.083 mg/kg local,272 ± 39 Nmm
same,Maximum Torsional Rigidity,femur fractures [3]; MnCl2 0.083 mg/kg local,2.6×10^4 ± 1.2×10^4 Nmm^2/rad
same,Percent Effective Shear Modulus,femur fractures [3]; MnCl2 0.083 mg/kg local,8 ± 7%
same,Percent Effective Shear Stress,femur fractures [3]; MnCl2 0.083 mg/kg local,8 ± 4%
same,Percent Maximum Torque to Failure,femur fractures [3]; MnCl2 0.083 mg/kg local,42 ± 5%
same,Percent maximum torsional rigidity,femur fractures [3]; MnCl2 0.083 mg/kg local,56 ± 30%
same,Effective Shear Modulus,femur fractures [3]; MnCl2 0.125 mg/kg local,6.4×10^2 ± 8.8×10^1 MPa
same,Effective Shear Stress,femur fractures [3]; MnCl2 0.125 mg/kg local,21 ± 6 MPa
same,Maximum Torque to Failure,femur fractures [3]; MnCl2 0.125 mg/kg local,351 ± 59^∗ Nmm
same,Maximum Torsional Rigidity,femur fractures [3]; MnCl2 0.125 mg/kg local,4.2×10^4 ± 1.1×10^4 Nmm^2/rad
same,Percent Effective Shear Modulus,femur fractures [3]; MnCl2 0.125 mg/kg local,16 ± 11%
same,Percent Effective Shear Stress,femur fractures [3]; MnCl2 0.125 mg/kg local,14 ± 5%
same,Percent Maximum Torque to Failure,femur fractures [3]; MnCl2 0.125 mg/kg local,54 ± 5%
same,Percent maximum torsional rigidity,femur fractures [3]; MnCl2 0.125 mg/kg local,103 ± 40^∗ Percent
same,Effective Shear Modulus,femur fractures [3]; MnCl2 0.25 mg/kg local,8.1×10^2 ± 5.0×10^2 MPa
same,Effective Shear Stress,femur fractures [3]; MnCl2 0.25 mg/kg local,32 ± 11 MPa
same,Maximum Torque to Failure,femur fractures [3]; MnCl2 0.25 mg/kg local,344 ± 84^∗ Nmm
same,Maximum Torsional Rigidity,femur fractures [3]; MnCl2 0.25 mg/kg local,3.4×10^4 ± 1.6×10^4 Nmm^2/rad
same,Percent Effective Shear Modulus,femur fractures [3]; MnCl2 0.25 mg/kg local,14 ± 9%
same,Percent Effective Shear Stress,femur fractures [3]; MnCl2 0.25 mg/kg local,16 ± 6%
same,Percent Maximum Torque to Failure,femur fractures [3]; MnCl2 0.25 mg/kg local,55 ± 19%
same,Percent maximum torsional rigidity,femur fractures [3]; MnCl2 0.25 mg/kg local,80 ± 34^∗ Percent
same,Effective Shear Modulus,femur fractures [3]; MnCl2 0.30 mg/kg local,7.6×10^2 ± 9.2×10^2 MPa
same,Effective Shear Stress,femur fractures [3]; MnCl2 0.30 mg/kg local,27 ± 23 MPa
same,Maximum Torque to Failure,femur fractures [3]; MnCl2 0.30 mg/kg local,323 ± 135^∗ Nmm
same,Maximum Torsional Rigidity,femur fractures [3]; MnCl2 0.30 mg/kg local,3.0×10^4 ± 2.6×10^4 Nmm^2/rad
same,Percent Effective Shear Modulus,femur fractures [3]; MnCl2 0.30 mg/kg local,10 ± 12%
same,Percent Effective Shear Stress,femur fractures [3]; MnCl2 0.30 mg/kg local,16 ± 12%
same,Percent Maximum Torque to Failure,femur fractures [3]; MnCl2 0.30 mg/kg local,50 ± 22%
same,Percent maximum torsional rigidity,femur fractures [3]; MnCl2 0.30 mg/kg local,50 ± 37%
same,Effective Shear Modulus,femur fractures [3]; MnCl2 0.50 mg/kg local,6.2×10^2 ± 3.5×10^2 MPa
same,Effective Shear Stress,femur fractures [3]; MnCl2 0.50 mg/kg local,19 ± 9 MPa
same,Maximum Torque to Failure,femur fractures [3]; MnCl2 0.50 mg/kg local,230 ± 83 Nmm
same,Maximum Torsional Rigidity,femur fractures [3]; MnCl2 0.50 mg/kg local,2.9×10^4 ± 1.2×10^4 Nmm^2/rad
same,Percent Effective Shear Modulus,femur fractures [3]; MnCl2 0.50 mg/kg local,17 ± 13%
same,Percent Effective Shear Stress,femur fractures [3]; MnCl2 0.50 mg/kg local,14 ± 7%
same,Percent Maximum Torque to Failure,femur fractures [3]; MnCl2 0.50 mg/kg local,38 ± 15%
same,Percent maximum torsional rigidity,femur fractures [3]; MnCl2 0.50 mg/kg local,61 ± 16%
[Zn] [Zn],Manual palpation: number graded A = fused,[4]; Zn-high pellet 1.0 mg/kg,4
same,Manual palpation: number graded B = partially fused,[4]; Zn-high pellet 1.0 mg/kg,1
same,Manual palpation: number graded C = not fused,[4]; Zn-high pellet 1.0 mg/kg,5
same,Manual palpation: number graded A = fused,[4]; [13],4/10
same,Manual palpation: number graded B = partially fused,[4]; [13],1/10
same,Manual palpation: number graded C = not fused,[4]; [13],5/10
same,Manual palpation: number graded A = fused,[4]; Zn-low pellet 0.5 mg/kg,3
same,Manual palpation: number graded B = partially fused,[4]; Zn-low pellet 0.5 mg/kg,4
same,Manual palpation: number graded C = not fused,[4]; Zn-low pellet 0.5 mg/kg,3
same,Manual palpation: number graded A = fused,[4]; [14],3/10
same,Manual palpation: number graded B = partially fused,[4]; [14],4/10
same,Manual palpation: number graded C = not fused,[4]; [14],3/10
same,Mean Bone Volume,[5]; Zn high dose pellet (1.0 mg/kg),172.7 mm^3
same,Mean Bone Volume,[5]; Zn low dose pellet (0.5 mg/kg),172.9 mm^3
same,Radiographs: number graded A = solid fusion mass bilaterally,[6]; Zn-high pellet 1.0 mg/kg,7
same,Radiographs: number graded B = unilateral fusion mass,[6]; Zn-high pellet 1.0 mg/kg,3
same,Radiographs: number graded C = small fusion mass bilaterally,[6]; Zn-high pellet 1.0 mg/kg,0
same,Radiographs: number graded D = Graft resorption,[6]; Zn-high pellet 1.0 mg/kg,0
same,Radiographs: number graded A = solid fusion mass bilaterally,[6]; [13],7/10
same,Radiographs: number graded B = unilateral fusion mass,[6]; [13],3/10
same,Radiographs: number graded C = small fusion mass bilaterally,[6]; [13],0/10
same,Radiographs: number graded D = Graft resorption,[6]; [13],0/10
same,Radiographs: number graded A = solid fusion mass bilaterally,[6]; Zn-low pellet 0.5 mg/kg,7
same,Radiographs: number graded B = unilateral fusion mass,[6]; Zn-low pellet 0.5 mg/kg,1
same,Radiographs: number graded C = small fusion mass bilaterally,[6]; Zn-low pellet 0.5 mg/kg,2
same,Radiographs: number graded D = Graft resorption,[6]; Zn-low pellet 0.5 mg/kg,0
same,Radiographs: number graded A = solid fusion mass bilaterally,[6]; [14],7/10
same,Radiographs: number graded B = unilateral fusion mass,[6]; [14],1/10
same,Radiographs: number graded C = small fusion mass bilaterally,[6]; [14],2/10
same,Radiographs: number graded D = Graft resorption,[6]; [14],0/10
